The results in this text go back to PubChem BioAssay (NCI).

Common to all, as to assay: inhibition of tumour cell growth, NCI panel, 48 h
Assay [1] has as its system CAKI-1 renal.
Assay [2] concerns MDA-N.
Assay [3] has as its system NCI-H226 lung.
Assay [4] relates to EKVX NSCLC.
Assay [5] has as its system SR leukemia.
The test system of assay [6] is SN12C renal.
Assay [7] relates to HCC-2998 colon.
In assay [8] the test system is HOP-92 NSCLC.
Assay [9] concerns MALME-3M melanoma.
The test system of assay [10] is PC-3 prostate.
For assay [11], the system named is MDA-MB-231 breast.
Assay [12] deals with OVCAR-4 ovarian.
Assay [13] relates to SK-MEL-5 melanoma.

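Five concentrations, 48 hours, 96-well plates. TGI: total growth inhibition.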

Turning to `C/C(Nc1ccc(Cl)cc1)=C1/CCOC1=O`, the TGI in assay [1], in assay [2], in assay [3], in [4], in assay [5] and in assay [6] was greater than 100 µM in each case. The TGI in assay [7], in [8], in assay [9], in assay [10], in assay [11] and in assay [12] was greater than 100 µM each time.
Turning to `Clc1cc2ncn(C3CCCCO3)c2cc1Cl` (stereo unspecified), the TGI in assay [1] was greater than 100 µM; in [2] it was greater than 100 µM; in assay [3], 80.9 µM; in assay [4], 92.4 µM; in assay [5] it was greater than 100 µM; in [13], greater than 100 µM. The TGI in assay [6], in assay [7], in assay [9], in assay [10], in assay [11] and in assay [12] was greater than 100 µM in each case.
For the compound `C[n+]1c(-c2ccc(/C=N/NC(=O)C(=O)N/N=C/c3ccc(-c4cn5ccccc5[n+]4C)cc3)cc2)cn2ccccc21`, the TGI in assay [1], in [2], in assay [3], in [4], in assay [13] and in assay [6] was greater than 100 µM in each case. The TGI in assay [7], in assay [8], in [9], in [10], in [11] and in assay [12] was greater than 100 µM each time.
Consider `CCCCCCCc1ccc(-c2nnc(N=Nc3ccc(OCCCCC)cc3)s2)s1`, for which the TGI in [1], in [2], in assay [3], in [4], in [13] and in assay [6] was greater than 100 µM throughout. In addition, the TGI in assay [7], in assay [9], in assay [10], in [11] and in [12] was greater than 100 µM each time.
For the compound `CCOC(=O)c1cn(CC)c2ccc3c(c2c1=O)S(=O)(=O)C=C3`, the TGI in assay [1], in [2], in assay [3], in assay [4], in [13] and in assay [6] was greater than 100 µM in each case. The TGI in assay [7], in assay [8], in assay [9], in [10], in [11] and in assay [12] was greater than 100 µM each time.
`C[n+]1c2ccccc2c(C(=O)Nc2ccc(S(=O)(=O)Nc3ncccn3)cc2)c2ccccc21`: the TGI in assay [1], in [2], in assay [3], in assay [4], in [5] and in assay [13] was greater than 100 µM in each case. Moreover, the TGI in assay [6], in assay [7], in [9], in assay [10], in [11] and in [12] was greater than 100 µM in each case.
Consider `COc1cc(/C=C2/Oc3c(OC)cccc3C2=O)ccc1O`, for which the TGI in [1], in assay [2], in assay [3], in [4], in assay [5] and in [13] was greater than 100 µM in each case. In addition, the TGI in [6], in assay [7], in assay [8], in assay [10], in [11] and in assay [12] was greater than 100 µM each time.
As for `CSc1nc[nH]c1C(N)=S`, the TGI in assay [1], in assay [2], in assay [3], in [4], in [13] and in [9] was greater than 100 µM in each case. For the same compound, the TGI in assay [10] and in assay [11] was greater than 100 µM each time.
`Cc1cc(C)n2c(nc3ccccc32)c1C#N`: the TGI in assay [1], in assay [2], in [3], in [4], in [13] and in assay [6] was greater than 100 µM each time. The TGI is greater than 100 µM in assay [7]; 79.8 µM in assay [8]; greater than 100 µM in [9]; greater than 100 µM in assay [10]; greater than 100 µM in [11]; greater than 100 µM in assay [12].
For the compound `COc1ccc(/C=N/Nc2nnc3c(n2)c2ccccc2c2nn(-c4ccccc4Cl)nc23)cc1`, the TGI in assay [1], in assay [2], in [3], in [4], in [13] and in [6] was greater than 100 µM throughout. In addition, the TGI in assay [8], in assay [9], in assay [10], in [11] and in [12] was greater than 100 µM each time.
Consider `CC1CCCN1CCCOC(=O)c1ccc(OC2C=CCCC2)cc1` (stereo unspecified), for which the TGI in [2] was greater than 100 µM; in assay [3], 86.4 µM; in [4] it was greater than 100 µM; in [5] it was 59.9 µM; in assay [13] it was 35.2 µM; in assay [6], greater than 100 µM. The TGI in assay [7] is 64.9 µM; in [9], 34.4 µM; in assay [10] it was 78.9 µM; in [11] it was 47.8 µM; in [12], greater than 100 µM.
On to `Cc1cc2c(cc1Cl)Sc1n[nH]c(=O)n1S2(=O)=O`, for which the TGI in assay [1], in [2], in [3], in [4], in assay [13] and in assay [6] was greater than 100 µM each time. Further, the TGI in [7], in assay [8], in assay [9], in [10], in [11] and in [12] was greater than 100 µM each time.
`C=CCNC1=C2C[C@@H](C)C[C@@H](OC)[C@H](OC(=O)CCN(C)C)[C@H](C)/C=C(\C)[C@@H](OC(N)=O)[C@H](OC)/C=C\C=C(/C)C(=O)NC(=CC1=O)C2=O`: the TGI in assay [1] was 45 µM; in [2], 14.3 µM; in assay [4], 22.9 µM; in assay [5] it was greater than 32.5 µM; in [13], 12.7 µM; in assay [6], 17.9 µM. In addition, the TGI came out at 0.752 µM in [7]; 29.2 µM in assay [8]; 19.2 µM in [9]; 14.3 µM in assay [10]; 8.89 µM in assay [11]; 26.7 µM in [12].
For the compound `O=S(=O)(O)c1cc(O)c(N=Nc2ccc3ccccc3c2O)c2ccccc12`, the TGI was 70.6 µM in assay [1]; greater than 100 µM in assay [2]; 49.5 µM in assay [3]; greater than 100 µM in assay [4]; greater than 100 µM in [5]; 25.2 µM in assay [13]. In addition, the TGI in assay [6] was greater than 100 µM; in [8], greater than 100 µM; in assay [9] it was 9.66 µM; in assay [10], greater than 100 µM; in assay [11] it was 94.7 µM; in assay [12] it was greater than 100 µM.
For the compound `Cc1nc(Cc2n[nH]c(C)n2)n[nH]1`, the TGI in assay [2], in assay [4], in [5], in assay [13], in [6] and in [7] was greater than 100 µM throughout. Further, the TGI in assay [8], in [10], in assay [11] and in assay [12] was greater than 100 µM in each case.
Consider `Cn1c(=O)c2c(nc(N/N=C3/SCC(=O)N3Cc3ccccc3)n2C)n(C)c1=O`, for which the TGI in assay [1], in assay [2], in assay [3], in assay [4], in assay [13] and in [6] was greater than 100 µM in each case. In addition, the TGI in assay [7] was greater than 100 µM; in [8], 78.7 µM; in assay [9] it was greater than 100 µM; in assay [10], greater than 100 µM; in [11], greater than 100 µM; in [12], greater than 100 µM.
`CC(=O)NN(c1ccccc1)C1CCN(c2ccccc2)N1C(C)=O` (stereo unspecified): the TGI in [1], in assay [2], in [3], in [4], in assay [5] and in assay [13] was greater than 10 µM in each case. Also, the TGI in assay [6], in [7], in assay [9], in [10], in assay [11] and in assay [12] was greater than 10 µM each time.
`c1cc2c(cc1[C@@H]1OC[C@@H]3[C@H]1CO[C@H]3c1ccc3c(c1)OCO3)OCO2`: the TGI in [1] is greater than 100 µM; in assay [2], greater than 100 µM; in assay [3] it was greater than 100 µM; in [4] it was 83.6 µM; in assay [13], 33.6 µM; in assay [6], greater than 100 µM. The TGI in assay [7], in assay [8], in assay [9], in [10], in assay [11] and in assay [12] was greater than 100 µM in each case.
In the case of `CC(=O)N[C@@H](Cc1ccc(O)cn1)C(=O)NC1CCCCC1`, the TGI in assay [1], in [2], in assay [3], in assay [4], in assay [5] and in assay [13] was greater than 100 µM throughout. Also, the TGI in assay [6], in [7], in assay [8], in [10], in [11] and in assay [12] was greater than 100 µM each time.
As to `Cc1ccc(-n2cc(-c3ccc(Cl)cc3)c3c(=N)n(N)cnc32)cc1`, the TGI was determined as 34.3 µM in [1]; 23.8 µM in assay [2]; 38.2 µM in assay [3]; 29.9 µM in [4]; 20.1 µM in assay [13]; 29.9 µM in assay [6]. The TGI turned out to be 19.2 µM in assay [7]; 21.6 µM in assay [8]; 26.1 µM in assay [9]; 19.4 µM in assay [10]; 25.3 µM in assay [11]; 22.5 µM in assay [12].
Regarding `O=C(O)C1(C(O)c2ccccc2)SCCCS1` (stereo unspecified), the TGI in assay [2], in assay [3], in assay [4], in assay [5], in [13] and in [6] was greater than 10 µM each time. The TGI in assay [8], in assay [9], in assay [10] and in [11] was greater than 10 µM in each case.
In the case of `NC(N)=NCCCC(NC(=O)c1c2ccccc2nc2ccccc12)C(=O)O` (stereo unspecified), the TGI in assay [1], in assay [2], in [3], in assay [4], in assay [5] and in assay [13] was greater than 100 µM throughout. The TGI in [6], in [7], in assay [8], in [10], in assay [11] and in [12] was greater than 100 µM each time.
Regarding `Clc1ccc(C2=NCON=C2c2ccc(Cl)cc2)cc1`, the TGI in assay [1] amounted to 97.8 µM; in [2], 56.5 µM; in assay [3], 32.7 µM; in assay [4] it was 45.3 µM; in assay [13], 30.3 µM; in [6], 35.2 µM. Moreover, the TGI in assay [7] was 32.7 µM; in assay [8] it was 43.5 µM; in [9], 27.7 µM; in assay [10], 68.2 µM; in assay [11], 43.7 µM; in assay [12], greater than 100 µM.
In the case of `CC(=O)N1c2cc(N=NN(C)C)ccc2NC(=O)CC1C` (stereo unspecified), the TGI in assay [1], in assay [2], in [3], in assay [4], in assay [13] and in assay [6] was greater than 100 µM in each case. Besides, the TGI in assay [7], in assay [9], in assay [10], in assay [11] and in [12] was greater than 100 µM in each case.
